Measured values reported in publication PMC11530130, “Peripherally restricted PICK1 inhibitor mPD5 ameliorates pain behaviors in murine inflammatory and neuropathic pain models” (JCI Insight, 2024).

Assays:
[1] = tested on: mice, spared nerve injury (SNI) model; type: in vivo, mouse; details: mouse, in vivo, sc
Experimental: solution (0.05 mg/kg) injected s.c. 30 min before surgery (10 μL/g). For surgery, mice were anaesthetised with ketamine (100 mg/kg, i.p.) and xylazine (10 mg/kg, i.p.) (volume 10 µL/g) with 100 μL of 1% xylocaine solution infiltrated at the site of the incision. The distal trifurcation of the sciatic nerve was identified, and the tibial and common peroneal branches were ligated with polypropylene nonabsorbable 6-0 sutures (Ethicon) and 1 mm was cut out, leaving the sural branch intact. The wound was closed with sutures, and the animals were allowed to recover and returned to their cages. Two subcutaneous injections of buprenorphine (0.05 mg/kg) were performed with an 8 to 12 hours delay decreasing pain due to the surgery […]
The remaining SNI pain experiments were performed in-house using the following procedure.
SNI surgery was performed on the left hindleg of C57BL/6J male and female mice (Janvier, France) under 2% isoflurane anaesthesia. Skin on the lateral surface was incised between hip and knee followed by lengthwise division of the biceps femoris muscle leading to exposure of the three branches of the sciatic nerve. Sural branch was left intact, while the peroneal and tibial branches were ligated with a single surgical knot and axotomized distally of the ligation.
Wounds were closed with surgical glue or medical clips and animals were monitored daily for signs of stress or discomfort, but in all cases recovered uneventfully. […]
(§1) The skin wound was closed with two medical clips (Michel Suture Clips, 7.5x1.75 mm, Angthos, 12040-01). Post-surgical analgesia included s.c. injection of 5 mg/kg carprofen (Carprosan vet, 50 mg/mL mixed 1:25 in sterile ddH2O, Dechra, Le Vet Beheer B.V., Netherlands, Batch: 050520) right after surgery and the […]
(§2) following day. […]
(§3) The test battery of the CIBP model was carried out 45 or 90 min after morphine and mPD5 administration respectively to accommodate the peak efficacy […]
(§4) Mechanically evoked pain (von Frey test).
(§5) Unless otherwise specified, von Frey occurred as described in the following. Animals were habituated to the experimental room for a minimum of 60 min before initiation of the experiment. Mechanical paw withdrawal threshold (PWT) was determined by von Frey measurements of both hind paws. Von Frey filaments ranging from 0.04 to 2 g (g = gram- […]
(§6) Filaments in ascending order were applied to the frontocentral plantar surface of the hind paws.
(§7) Mice were placed in PVC plastic boxes (11.5 cm x 14 cm) on a wire mesh and allowed minimum 20 min habituation prior of experiment initiation. Each von Frey hair was applied five times with adequate resting periods between each application and number of withdrawals recorded. The withdrawal threshold was determined as the von Frey filament eliciting at least three positive trials out of the five applications in two consecutive filaments. A positive trial was defined as sudden paw withdrawal, flinching and/or paw licking induced by the filament.
(§8) For the CIBP model, two habituation sessions were performed on separated days with mice placed in the von Frey equipment for 1-1.5 hours in the presence of the experimenter on day one and random von Frey pocking with the 0.6 g filament on day two. Von Frey monofilaments (North Coast Touch Test, North Coast Medical, Inc.) with target forces of 0.04g, 0.07g, 0.16g, […]
(§9) down method” (PWT=10Xf+kδ) starting with the 0.6 g filament. Positive response was defined as; withdrawal, shaking or grooming of paw following a 2-3 second stimulation. In case, of unclear response, stimulus was repeated after 10-15 seconds.
(§10) For the STZ model, the mechanical threshold response of the injected mice was measured with […]
(§11) injection of test compounds on day 14, mechanical threshold was measured at 1 hour, 2 hours, 4 hours and 6 hours and again on day 15. […]
(§12) Thermally evoked pain (Hargreaves test).
A baseline Hargreaves test was performed on day 0 before inflammatory pain was induced as described in section 2.13. In the Hargreaves test, the mouse was placed in a container on a glass […]

[2] = tested on: mice, streptozocin (STZ) model of type 1 diabetes; assay: STZ model of diabetic neuropathy, von Frey; type: in vivo, mouse; details: male mice, positive control, dose not given
Experimental: Induction of Diabetic neuropathy (STZ model).
Diabetes was induced by a single i.p. injection of […] streptozocin (STZ) solution (100 μL/10 g, Sigma-Aldrich S0130, batch #WXBB7152V) in male seven-week-old C57BL/6J (Charles River) mice. Glycemia was tested before, and seven days after injection. All injected mice had blood glucose concentration >350 mg/dL from day seven and were used for analgesic testing of the compounds from day 14. One mouse had to be euthanized at seven days post injection. This experiment was performed by Phenotype Expertise, Marseilles, France - Pain and CNS behaviour CRO under supervision of Stéphane Gaillard, PhD (CEO). […]
as §1, §2, §3, §4, §5, §6, §7, §8, §9, §10, §11, §12
A baseline Hargreaves test was performed on day 0 before inflammatory pain was induced as described in section 2.13. In the Hargreaves test, the mouse was placed in a container on a glass table and left to habituate for at least 15 min. Using the Hargreaves apparatus, a heat beam from beneath was directed towards the hind paws of the mouse, and the paw withdrawal time

CCCCCCCCCCCCCCCCCCCC(=O)N(CCOCCOCCC(=O)N[C@@H](Cc1c[nH]cn1)C(=O)N[C@@H](Cc1c[nH]c2ccccc12)C(=O)N[C@@H](CC(C)C)C(=O)N[C@@H](CCCCN)C(=O)N[C@H](C(=O)O)C(C)C)CCOCCOCCC(=O)N[C@@H](Cc1c[nH]cn1)C(=O)N[C@@H](Cc1c[nH]c2ccccc12)C(=O)N[C@@H](CC(C)C)C(=O)N[C@@H](CCCCN)C(=O)N[C@H](C(=O)O)C(C)C [aPD5, arachidoyl-NPEG4-(HWLKV)2]
itching in the mice [1]: profound itching

CC(C)C[C@H](CN)CC(=O)O [pregabalin, reference compound]
duration of significant pain relief [2]: up to 4 hours

CCCCCCCCCCCCCCCCCC(=O)N(CCOCCOCCC(=O)N[C@@H](Cc1c[nH]cn1)C(=O)N[C@@H](Cc1c[nH]c2ccccc12)C(=O)N[C@@H](CC(C)C)C(=O)N[C@@H](CCCCN)C(=O)N[C@H](C(=O)O)C(C)C)CCOCCOCCC(=O)N[C@@H](Cc1c[nH]cn1)C(=O)N[C@@H](Cc1c[nH]c2ccccc12)C(=O)N[C@@H](CC(C)C)C(=O)N[C@@H](CCCCN)C(=O)N[C@H](C(=O)O)C(C)C [sPD5, stearoyl-NPEG4-(HWLKV)2]
itching in the mice [1]: profound itching
